Holding throughout (assay type): cell-based, guinea pig (Hartley strain)
In one test the target is T1, 5-lipoxygenase (Cavia porcellus, UniProt A0A286X958).
T1 construct: endogenous in cells; host or cells: guinea pig (Hartley strain) casein-elicited peritoneal exudate cells, intact cell suspension
T1 sequence (A0A286X958 1-674): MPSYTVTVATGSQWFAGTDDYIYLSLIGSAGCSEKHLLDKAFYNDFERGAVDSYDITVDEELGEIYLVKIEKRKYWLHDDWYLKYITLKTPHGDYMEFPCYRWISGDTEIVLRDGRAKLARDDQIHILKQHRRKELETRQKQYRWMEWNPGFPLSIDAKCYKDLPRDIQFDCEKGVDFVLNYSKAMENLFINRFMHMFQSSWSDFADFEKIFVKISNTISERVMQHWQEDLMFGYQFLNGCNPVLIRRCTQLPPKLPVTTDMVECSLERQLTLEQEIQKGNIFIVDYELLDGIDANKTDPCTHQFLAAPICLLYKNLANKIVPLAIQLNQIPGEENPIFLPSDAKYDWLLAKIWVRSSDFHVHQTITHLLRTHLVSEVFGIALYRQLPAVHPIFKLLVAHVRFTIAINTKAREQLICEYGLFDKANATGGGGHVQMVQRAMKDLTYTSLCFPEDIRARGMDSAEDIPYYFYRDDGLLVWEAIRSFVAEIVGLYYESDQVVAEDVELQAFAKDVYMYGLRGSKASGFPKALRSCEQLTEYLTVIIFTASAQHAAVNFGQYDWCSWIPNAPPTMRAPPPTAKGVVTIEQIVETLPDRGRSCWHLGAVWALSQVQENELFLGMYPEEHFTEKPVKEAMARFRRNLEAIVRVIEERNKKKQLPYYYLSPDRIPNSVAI
As to the kind of experiment: 5-Lipoxygenase inhibitory activity (conversion of 14C-arachidonic acid to 5-HETE) in guinea pig peritoneal exudate cells. Conditions: read-out: inhibition ratio (%) of 5-lipoxygenase activity; for inhibition at 3 µM: concentration 3 × 10^-6 M; for inhibition at 0.3 µM: concentration 3 × 10^-7 M; for inhibition at 10 µM: concentration 10^-5 M; for inhibition at 1 µM: concentration 10^-6 M; for inhibition at 0.1 µM: concentration 10^-7 M. As to the method: 5-Lipoxygenase inhibitory activity of the present compounds was determined by a method according to procedures described in "J. Biol. Chem., Vol. 256, pages 4156-4159, (1981, Ibid. Vol. 258, pages 5754-5758 (1983).
(1) Preparation of Test Cells
A guinea pig (Hartley strain) (500-650 g body weight) was intraperitoneally administered with 2%-casein solution in 3/50 the volume of body weight. 14 Hours after the administration, the animal was sacrificed by bleeding and the peritoneal cavity was washed with Dulbecco's phosphate buffered saline (PBS) containing 3 U/ml of heparin and the exudate cells were harvested. The sample of cells was washed twice with Dulbecco's PBS (-), then the cells were suspended in Dulbecco's PBS (-), containing 1 mM of calcium chloride and 5.5 mM of glucose, so as to make a suspension having the concentration of 2.5×10^7 cells/ml.
To 0.2 ml of the above-mentioned cell suspension was added 10^-5 M of Indomethacine, and incubated at 30° C. for 2 minutes. Each of the appropriate concentrations of test compounds was added to the suspension respectively, further incubated for 2 minutes. Next, 10 μm of Ionophore A23187 (manufactured by Calbiochem-Behring, San Diego, Calif., U. S. A) was added to the suspension, further, 10 μm of ^14 C-arachidonic acid (manufactured by Amersham Japan, Ltd., Tokyo, Japan) was added and initiated the reaction. 3 Minutes after the initiation of the reaction, 0.1 ml of 0.2M-citric acid was added so as to terminate the reaction. 1.2 Milliliters of ethyl acetate was added to the reaction mixture and shaked for 5 minutes. The reaction mixture was centrifuged at 3,000 rpm for 5 minutes so as to separate the organic layer from the aqueous layer. 1 Milliliter of the organic layer (the upper layer) was dehydrated by passing through a mini-column packed with anhydrous sodium sulfate. The dehydrated organic layer was dried under nitrogen gas stream. The residue obtained was dissolved in ethyl acetate, and the total amount of the ethyl acetate solution was spotted onto thin layer chromochromatography (TCL) plate (Art. 11845 manufactured by E. Merck A. G.). The TCL was carried out with a mixed solvent of diethyl ether:petroleum:ether:acetic acid (50:50:1 volume/volume), then the radioactive metabolites on the plate were detected by using "Ultrafilm ^3 H" (a trademark for a X-ray film, manufactured by LKB Co.). Each fractions corresponding to the metabolites was scraped in to a scintillation vial, and 5 ml of "Scintilator ACS-II" (manufactured by Amersham Japan, Ltd.), was added then the radio-activity was determined by means of a liquid scintillation counter.

For test [1], the system named is SRS-A release from lung fragments. Briefly: Inhibition of SRS-A release from sensitized guinea pig lung fragments. As to conditions: Cavia porcellus. As to the method:
(§1) Inhibitory activities on the release of SRS-A and histamine of the present compounds were determined.
(§2) A male guinea pig (Hartley strain) (body weight: about 300 g) was sensitized by a method according to P. Anderson: "Int. Archs. Allergey appln. Immunol., Vol. 64, pages 249-258 (1981). Thus, 30 mg/kg of cyclophosphamide was intraperitoneally administered to the guinea pig, and 2 days after 1 microgram of ovalbumin (manufactured by Sigma Chemical Co., St. Louis, Mo. U. S. A.) together with 10 mg of aluminium hydroxide gel were intraperitoneally administered so as to have the animal sesitized.
(§3) 50 Days after the sesitization, the animal was killed by exsanguination, and the lung was isolated from the animal and was perfused with 20 ml of Tyrode's solution, then immersed in an ice-cooled Tyrode's solution. The parenchyma of the lung was cut by using McIlwain-type tissue chopper to make it into fragments of lung having 2 mm square and the fragments were washed with Tyrode's solution. 400 Milligrams of sectiles of lung were suspended in 3.6 ml of Tyrode's solution, and this suspension was preincubated at 37° C. for 5 minutes, then 4 microliters of dimethyl sulfoxide solution of the test compound, in the case of control 4 microliters of dimethyl sulfoxide alone was added to the suspension. 5 Minutes after, 0.4 ml of 100 micrograms/ml of ovalbumin solution added so as to release SRS-A for 10 minutes. The suspension was ice-cooled and filtered through gauze, the filtrate was centrifuged at 2,000 rpm for 10 minutes and the supernatant was collected. The supernatant was stored in freezed state at -80° C. until bio-assay was conducted.
(§4) Amounts of SRS-A and histamine contained in the supernatant were determined by bio-assay using ileum of guinea pig.
(§5) A piece of the ileum (2-3 cm of length) positioned from 15-25 cm from the opening portion of ileocecum was isolated from a male guinea pig (Hartley strain) (body weight: 400-600 g) which was fasted for 24 hours. The piece of ileum was hanged vertically in a Magnus tube which was filled with 10 ml of Tyrode's solution containing 10^-7 M of atropine sulfate under air stream conditions. The isotonic contraction of the piece of the ileum was measured at 0.5 g of load by using an isotonic transducer "TD-112S" (manufactured by Nihon Koden Co., Ltd.). The measurements were carried out after the reaction to histamine of the piece of ileum was kept constant. Bioassay of histamine was measured by using the value of contraction shown in 30 seconds after the addition of the supernatant. Bioassay of on SRS-A was measured by using the value of contraction shown at 2 minutes after the addition of the supernatant in the presence of 10^-6 M of pyrilamine (manufactured by Sigma Chemical Co.), and compared with the standard curve of crude SRS-A released from the fragments of the lung.

The test system of test [2] is histamine release from lung fragments. As to the kind of experiment: Inhibition of histamine release from sensitized guinea pig lung fragments. As to conditions: Cavia porcellus, read-out: Inhibition ratio (%) Histamine; for inhibition at 3 µM: Table 2, dose 3 μM; for inhibition at 30 µM: Table 2, dose 30 μM. The protocol:
as §1, §2, §3, §4, §5

The mark [3] stands for this setting: Table 2B, 3 μM, read-out: Inhibitory activities on SRS-A (%).
[4] abbreviates: Table 2B, 30 μM, read-out: Inhibitory activities on SRS-A (%).
The mark [5] stands for this setting: Table 2, dose 3 μM, read-out: Inhibition ratio (%) SRS-A.
[6] abbreviates: Table 2, dose 30 μM, read-out: Inhibition ratio (%) SRS-A.

Structures are written as SMILES. Where two headings read alike, the source gives them in different places.

As to `CCCCC#CCCCCCCCCCC1=C(OC)C(=O)C=C(OC)C1=O` [Test Compound No. 32, 2,5-Dimethoxy-3-(10-pentadecynyl)-1,4-benzoquinone], on 5-lipoxygenase, the inhibition at 3 µM stood at 80%, the inhibition at 0.3 µM was 36%, the inhibition at 10 µM amounted to 87% and the inhibition at 1 µM was determined as 56%. The inhibition at 3 µM in test [1] (setting [3]) was 12.4%. The inhibition at 30 µM in test [1] (setting [4]) came out at 26%.
As for `CCCC/C=C\CCCCCCCC1=C(OC)C(=O)C=C(OC)C1=O` [Test Compound No. 34, 2,5-Dimethoxy-3-(Z-8-tridecenyl)-1,4-benzoquinone], at 5-lipoxygenase, the inhibition at 3 µM was 73%, the inhibition at 0.3 µM worked out at 26%, the inhibition at 10 µM amounted to 89% and the inhibition at 1 µM was found to be 37%. Further, the inhibition at 3 µM in test [1] (setting [3]) turned out to be 3.2%. In test [1] (setting [4]), the inhibition at 30 µM came to 0.8%.
Take `COC1=CC(=O)C(OC)=C(CCCCCCCCC2=C(OC)C(=O)C=C(OC)C2=O)C1=O` [Test Compound No. 12, 2,2'-Octamethylenebis(3,6-dimethoxy-1,4-benzoquinone)]: on 5-lipoxygenase, the inhibition at 0.3 µM amounted to 72%, the inhibition at 1 µM was 87% and the inhibition at 0.1 µM amounted to 36%. Moreover, in test [1] (setting [5]), the inhibition at 3 µM amounted to 26.9%. Further, the inhibition at 30 µM in test [1] (setting [6]) stood at 71.7%. Further, in test [2], the inhibition at 3 µM is 2.4% and the inhibition at 30 µM is -2.2%.
As to `COC1=CC(=O)C(OC)=C(CCCCCCC2=C(OC)C(=O)C=C(OC)C2=O)C1=O` [Test Compound No. 10, 2,2'-Hexamethylenebis(3,6-dimethoxy-1,4-benzoquinone)], at 5-lipoxygenase, the inhibition at 0.3 µM came out at 58%, the inhibition at 1 µM came out at 81% and the inhibition at 0.1 µM was 17%. Also, the inhibition at 3 µM in test [1] (setting [5]) is 73.4%. Moreover, the inhibition at 30 µM in test [1] (setting [6]) was > 95.2%. Besides, in test [2], the inhibition at 3 µM came out at 20.6% and the inhibition at 30 µM came to 22.4%.
Take `COC1=C(CCO)C(=O)C(OC)=C(CCCCCC2=C(OC)C(=O)C(CCO)=C(OC)C2=O)C1=O` [Test Compound No. 19, 5,5'-Pentamethylenebis[2-(2-hydroxyethyl)-3,6-dimethoxy-1,4-benzoquinone]]: on 5-lipoxygenase, the inhibition at 0.3 µM was determined as 74%, the inhibition at 1 µM came out at 87% and the inhibition at 0.1 µM is 48%. In addition, the inhibition at 3 µM in test [1] (setting [5]) is 40.6%. In test [1] (setting [6]), the inhibition at 30 µM turned out to be 76.6%. Moreover, the inhibition at 3 µM in test [1] (setting [3]) amounted to 40.6%. In addition, the inhibition at 30 µM in test [1] (setting [4]) was 76.6%.
In the case of `CCCC/C=C\CCCCCC1=C(OC)C(=O)C=C(OC)C1=O` [Test Compound No. 33, 2,5-Dimethoxy-3-(Z-6-undecenyl)-1,4-benzoquinone], on 5-lipoxygenase, the inhibition at 3 µM stood at 91%, the inhibition at 0.3 µM was determined as 51%, the inhibition at 10 µM turned out to be 89% and the inhibition at 1 µM stood at 87%. Further, the inhibition at 3 µM in test [1] (setting [3]) is 19.6%. Further, in test [1] (setting [4]), the inhibition at 30 µM was 33.4%.
Regarding `COC1=CC(=O)C(OC)=C(CCCCCCCCCCCCC2=C(OC)C(=O)C=C(OC)C2=O)C1=O` [Test Compound No. 15, 2,2'-Dodecamethylenebis(3,6-dimethoxy-1,4-benzoquinone)], at 5-lipoxygenase, the inhibition at 0.3 µM came to 37%, the inhibition at 1 µM was 77% and the inhibition at 0.1 µM came to 5%. The inhibition at 3 µM in test [1] (setting [5]) amounted to 3.4%. Besides, the inhibition at 30 µM in test [1] (setting [6]) stood at 3.8%. In test [2], the inhibition at 3 µM is -10.4% and the inhibition at 30 µM was -16%.
`COC1=C(C)C(=O)C(OC)=C(CCCCCC2=C(OC)C(=O)C(C)=C(OC)C2=O)C1=O` [Test Compound No. 17, 2,2'-Pentamethylenebis(3,6-dimethoxy-5-methyl-1,4-benzoquinone)]: on 5-lipoxygenase, the inhibition at 0.3 µM was 79%, the inhibition at 1 µM was 89% and the inhibition at 0.1 µM came out at 13%. Moreover, the inhibition at 3 µM in test [1] (setting [5]) is 56.3%. The inhibition at 30 µM in test [1] (setting [6]) is 83.9%.
For `CCCCC#CCCCCCC1=C(OC)C(=O)C=C(OC)C1=O` [compound 30], on 5-lipoxygenase, the inhibition at 3 µM came to 92%, the inhibition at 0.3 µM was 39%, the inhibition at 10 µM was determined as 91% and the inhibition at 1 µM was determined as 75%. For the same molecule, in test [1] (setting [3]), the inhibition at 3 µM is 23.8%. Further, the inhibition at 30 µM in test [1] (setting [4]) turned out to be 73.4%.
With `CCCCC#CCCCCCCCC1=C(OC)C(=O)C=C(OC)C1=O` [compound 31], on 5-lipoxygenase, the inhibition at 3 µM worked out at 91%, the inhibition at 0.3 µM is 43%, the inhibition at 10 µM came out at 93% and the inhibition at 1 µM amounted to 73%. For the same molecule, the inhibition at 3 µM in test [1] (setting [3]) was found to be 17%. Also, in test [1] (setting [4]), the inhibition at 30 µM stood at 37.7%.
As to `COC1=CC(=O)C(OC)=C(CCCCCCCC2OC2CCCCCCCC2=C(OC)C(=O)C=C(OC)C2=O)C1=O` (stereo not shown) [Test Compound No. 5, 1,16-(2,5-Dimethoxy-1,4-benzoquinon-3-yl)-8,9-epoxyhexadecane], on 5-lipoxygenase, the inhibition at 3 µM worked out at 86%, the inhibition at 0.3 µM was 24%, the inhibition at 1 µM was determined as 86% and the inhibition at 0.1 µM turned out to be 17%.

For the origin of these results see patent publication US5220042A, “1,4-benzoquinone derivatives and benzene derivatives, and process for preparing the same” (priority 1984, dated 1993).
